# Results: publication PMC11017246, “Discovery of GLPG2737, a Potent Type 2 Corrector of CFTR for the Treatment of Cystic Fibrosis in Combination with a Potentiator and a Type 1 Co-corrector” (Journal of Medicinal Chemistry, 2024)
# Assays:
# [1] = biological target: T1, ΔF508 CFTR (Homo sapiens, UniProt P13569, DEL508-508); experiment: CSE-HRP: cell surface expression horseradish peroxidase assay in CFBE41o- cells; assay type: cell-based; settings: no additional corrector; for Emax: CFBE41o-, relative to lumacaftor or 5 (3 μM) positive control, read-out: CSE-HRP % max activation; for EC50: 24 h incubation, 33 °C, geometric mean, read-out: CSE-HRP EC50
# T1 construct: host or cells: CFBE41o- TetON cells, expression induced with doxycycline
# Procedure: A CFBE41o– cell line stably expressing ΔF508 CFTR harboring an HRP-tag in the fourth extracellular loop was obtained from Professor Gergely Lukacs (Department of Physiology, McGill University, Montreal, QC, Canada).[25] Cells were grown in Eagle’s minimal essential medium (Life Technologies) supplemented with 10% FBS, 1% L-glutamine (Life Technologies), 10 mM HEPES (Life Technologies), 200 μg/mL Geneticin (Life Technologies), and 3 μg/mL puromycin (Sigma) in culture flasks coated with 0.01% bovine serum albumin (BSA) (Sigma), 30 μg/mL Purecol (Nutacon), and 0.001% human fibronectin (Sigma).
# CFBE41o– TetON cells expressing HRP tagged ΔF508-CFTR were seeded in white 384-well plates (Greiner) at a density of 2000 cells per well. Medium containing 500 ng/mL doxycycline was used to induce expression of ΔF508-CFTR-HRP. After 3 days, cells were treated with corrector or potentiator compounds and transferred to an incubator at 33 °C. On day 4, cells were washed five times with PBS containing Ca^2+ and Mg^2+ using a Bio-Tek plate washer and incubated with a chemiluminescent HRP substrate (SuperSignal West Pico Chemiluminescent Substrate, Thermo Scientific) for 15 min. Chemiluminescence was measured using an Envision plate reader (PerkinElmer). Dose response data was fitted using a 4 parameter hill function of the form Response = neg control + (pos control – neg control)/(1 + 10^(log EC50-concentration)/HillSlope) to determine EC50 values. Percentage efficacy was calculated using the following formula: (max response – neg control)/(C1 response – neg control).
# [2] = Liver microsomal stability, rat; assay type: in vitro ADME; settings: liver microsomes; rat microsomes; calculated from measured fumic; read-out: Mic CLint,u rat (converted)
# Procedure: (§1) The microsomal stability assay was performed by incubation of test compound at 1 μM, 0.2% DMSO in phosphate buffer with microsomes (0.5 mg/mL) from mouse, rat, dog, or human (Xeno-Tech, Kansas City, KS, USA), and cofactors with final concentrations of 0.6 U/mL glucose-6- phosphate dehydrogenase, 3.3 mM MgCl2, 3.3 mM glucose-6-phosphate, and 1.3 mM nicotinamide adenine dinucleotide phosphate (NADP)+. Before addition of the microsomes (time zero) and after 30 min of incubation at 37 °C with shaking, the reaction was stopped, and proteins were precipitated with an excess of acetonitrile containing an internal standard. The samples were mixed, centrifuged, and filtered, and the supernatant was analyzed by liquid chromatography–mass spectrometry/mass spectrometry (LC–MS/MS). The instrument responses (peak areas/IS peak areas) were referenced to the zero-time point samples (considered as 100%) to determine the percentage of compound remaining. In vitro unbound intrinsic clearance (CLint,u) was calculated from the half-life using the following equations: [drawing 1] [drawing 2] To take into account nonspecific binding, scaled CLint values were corrected with the fraction unbound in microsomes (fu, mic). [drawing 3]
# (§2) Equilibrium dialysis is a technique used to measure microsomal binding. Briefly, the assay was performed in a 96-well Teflon dialysis unit (Dialysis Device), where each well consists of two chambers separated by a dialysis membrane (membrane strips, MW cutoff 12–14 kDa, HTDialysis). Inactivated liver microsomes (pooled human liver microsomes, Xenotech, protein concentration of 0.5 mg/mL) spiked with a compound (1 μM final concentration, 0.5% DMSO) were added to one chamber and buffer solution (50 mM PBS Buffer) was added to the other side of the well. Each compound was analyzed in duplicate for 4 h at 37 °C. At the end of incubation, both chambers were sampled and analyzed by LC-MS/MS. The unbound microsomal fraction (fu, mic) was calculated as the concentration in buffer divided by the total concentration in the microsomal side. Positive controls included in this assay are terfenadine and verapamil.
# [3] = Liver microsomal stability, human; assay type: in vitro ADME; settings: liver microsomes; human microsomes; calculated from measured fumic; read-out: Mic CLint,u human (converted)
# Procedure: as §1, §2
# [4] = Hepatocyte stability, rat; assay type: in vitro ADME; settings: read-out: Hep CLint,u rat (converted)
# Procedure: (§3) The hepatocyte stability assay was performed by incubation of test compound at 1 μM, 0.03% DMSO in modified Krebs–Henseleit buffer with suspension of pooled cryopreserved hepatocytes (BioIVT, Hicksville, NY, USA) from mouse, rat, dog, or human (BioIVT, Hicksville, NY, USA) at 0.5 million viable hepatocytes/mL. Before adding the hepatocytes (time zero) and after 10, 20, 45, 90, 120, and 180 min of incubation (n = 2) at 37 °C while gently shaking, the reaction was stopped and proteins were precipitated with an excess of acetonitrile containing an internal standard. The samples were mixed, centrifuged, and filtered, and the supernatant was analyzed by liquid chromatography–mass spectrometry/mass spectrometry (LC–MS/MS). The instrument responses (peak areas/IS peak areas) were referenced to the zero-time point samples (considered as 100%) in order to determine the percentage of compound remaining.
# [5] = Hepatocyte stability, human; assay type: in vitro ADME; settings: human hepatocytes; read-out: Hep CLint,u human
# Procedure: as §3
# [6] = pooled cryopreserved hepatocytes in suspension
# T1 sequence (P13569 with tags, fused parts or gaps DEL508-508): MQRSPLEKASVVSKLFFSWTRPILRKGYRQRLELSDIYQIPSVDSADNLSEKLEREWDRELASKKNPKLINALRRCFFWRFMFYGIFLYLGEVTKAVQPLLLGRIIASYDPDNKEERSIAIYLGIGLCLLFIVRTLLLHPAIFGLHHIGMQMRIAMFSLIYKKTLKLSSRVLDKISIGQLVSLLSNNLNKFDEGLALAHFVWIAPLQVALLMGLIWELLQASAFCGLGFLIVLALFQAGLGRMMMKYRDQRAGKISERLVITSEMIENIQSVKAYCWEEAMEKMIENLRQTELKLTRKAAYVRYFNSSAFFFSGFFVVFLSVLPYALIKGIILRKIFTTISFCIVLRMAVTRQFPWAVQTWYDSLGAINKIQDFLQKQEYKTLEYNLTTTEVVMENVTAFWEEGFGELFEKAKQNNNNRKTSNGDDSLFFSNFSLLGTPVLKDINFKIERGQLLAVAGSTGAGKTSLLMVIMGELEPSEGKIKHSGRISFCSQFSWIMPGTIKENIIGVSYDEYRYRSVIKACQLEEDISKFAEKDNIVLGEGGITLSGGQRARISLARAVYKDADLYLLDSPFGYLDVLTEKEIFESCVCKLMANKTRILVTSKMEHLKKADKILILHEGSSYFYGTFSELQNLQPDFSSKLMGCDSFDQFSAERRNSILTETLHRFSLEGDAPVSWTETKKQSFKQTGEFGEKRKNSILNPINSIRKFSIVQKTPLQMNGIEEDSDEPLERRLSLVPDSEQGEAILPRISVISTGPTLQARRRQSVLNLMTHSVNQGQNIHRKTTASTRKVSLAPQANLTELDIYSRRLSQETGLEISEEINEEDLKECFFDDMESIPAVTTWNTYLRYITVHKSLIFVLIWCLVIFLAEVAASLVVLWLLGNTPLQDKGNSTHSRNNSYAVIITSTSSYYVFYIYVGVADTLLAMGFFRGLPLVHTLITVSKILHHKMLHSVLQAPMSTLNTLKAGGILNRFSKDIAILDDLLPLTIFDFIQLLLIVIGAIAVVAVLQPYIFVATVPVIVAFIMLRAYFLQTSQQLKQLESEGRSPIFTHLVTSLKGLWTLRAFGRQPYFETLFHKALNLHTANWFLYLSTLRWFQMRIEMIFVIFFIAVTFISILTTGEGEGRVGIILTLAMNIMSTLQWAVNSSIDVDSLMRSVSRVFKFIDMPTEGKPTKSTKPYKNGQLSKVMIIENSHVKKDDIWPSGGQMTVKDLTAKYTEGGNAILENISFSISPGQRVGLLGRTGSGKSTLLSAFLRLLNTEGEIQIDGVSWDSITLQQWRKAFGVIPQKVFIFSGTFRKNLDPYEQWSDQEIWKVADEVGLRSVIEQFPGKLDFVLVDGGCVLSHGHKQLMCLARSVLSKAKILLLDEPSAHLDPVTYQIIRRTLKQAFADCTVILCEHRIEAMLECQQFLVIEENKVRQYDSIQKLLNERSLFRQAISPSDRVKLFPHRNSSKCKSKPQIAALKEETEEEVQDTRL
smiles,measurement,setting,value
COc1ccc(-c2cc(C(=O)O)nc3c2c(C)nn3-c2ccc(C)cc2)cc1 [Compound 6],Emax,[1],64%
same,EC50,[1],4.13 µM
same,CLint scaled at 1 μM,[2],182 mL/min/kg
same,CLint scaled at 1 μM,[3],< 59.8 mL/min/kg
same,CLint scaled at 1 μM,[4]; [6],263 mL/min/kg
COc1ccc(-c2cc(C(=O)O)nc3c2c(C)nn3-c2ccccc2)cc1 [Compound 7],Emax,[1],95%
same,EC50,[1],2.48 µM
same,CLint scaled at 1 μM,[2],180 mL/min/kg
same,CLint scaled at 1 μM,[3],173 mL/min/kg
same,CLint scaled at 1 μM,[4]; [6],305 mL/min/kg
Cc1nn(-c2ccccc2)c2nc(C(=O)O)cc(-c3ccc(N4CCOCC4)cc3)c12 [Compound 8],CLint scaled at 1 μM,[2],< 43.3 mL/min/kg
same,CLint scaled at 1 μM,[3],< 28.3 mL/min/kg
same,CLint scaled at 1 μM,[4]; rat hepatocytes,66.7 mL/min/kg
same,CLint scaled at 1 μM,[5],< 45.7 mL/min/kg
